The numbers were not newly measured in patent publication US20140050728A1, “METHODS AND COMPOSITIONS FOR INHIBITING CYCLOPHILIN D FOR THE TREATMENT AND PREVENTION OF OBESITY AND KIDNEY INDICATIONS” (BOARD OF REGENTS OF THE UNIVERSITY OF NEBRASKA, priority 2011, published 2014), which cites them from elsewhere.

For the series the following is noted: for weight loss in clinical trials: none of the trials achieved the NIH effectiveness threshold.

On to `CCCCCCCCCCC[C@@H](C[C@@H]1OC(=O)[C@H]1CCCCCC)OC(=O)[C@H](CC(C)C)NC=O` [orlistat], for which the “weight loss in clinical trials” value is on record as “modest weight loss”. For the compound `CC(C)CC(N(C)C)C1(c2ccc(Cl)cc2)CCC1` (stereo not drawn) [sibutramine], the “weight loss in clinical trials” value is “modest weight loss”. Also, the “cardiovascular risk associated with use” value (banned in Europe, cautioned by U.S. FDA) was “increased cardiovascular risk”.
